According to the NIST ThermoML archive (doi:10.1016/j.fluid.2018.06.013):
± gives the expanded uncertainty stated by the source.

Experiment: activity coefficient (dimensionless); of the first substance listed, at infinite dilution; xn = mol fraction of the nth substance listed
Conditions: 100 kPa, Liquid, Chromatography, x1 = 0

| activity coefficient (313.15 K) | activity coefficient (323.15 K) | activity coefficient (343.15 K) | activity coefficient (363.15 K) | activity coefficient (373.15 K) | Compound |
| --- | --- | --- | --- | --- | --- |
| 1.49 ± 0.15 | 1.54 ± 0.16 | 1.7 ± 0.18 | 1.8 ± 0.19 | 1.9 ± 0.2 | C=Cc1ccccc1 [styrene] + CCCC[N+]1(C)CCCC1.N#CN=C=[N-] |
| 17.9 ± 1.9 | 17 ± 1.8 | 16.8 ± 1.8 | 16.6 ± 1.7 | 16.6 ± 1.7 | CCCOCCC [dipropyl ether] + CCCC[N+]1(C)CCCC1.N#CN=C=[N-] |
| 2.35 ± 0.25 | 2.36 ± 0.25 | 2.48 ± 0.26 | 2.57 ± 0.27 | 2.61 ± 0.27 | CCOC(C)=O [ethyl acetate] + CCCC[N+]1(C)CCCC1.N#CN=C=[N-] |

| Compound | activity coefficient (313.15 K) | activity coefficient (323.15 K) | activity coefficient (343.15 K) | activity coefficient (363.15 K) | activity coefficient (373.15 K) |
| --- | --- | --- | --- | --- | --- |
| c1ccncc1 [pyridine] + CCCC[N+]1(C)CCCC1.N#CN=C=[N-] | 1.02 ± 0.1 | 1.05 ± 0.11 | 1.07 ± 0.11 | 1.11 ± 0.11 | 1.13 ± 0.12 |
